In US9932350B2, “Inhibitors of IRAK4 activity” (MERCK SHARP & DOHME CORP., priority 2014, dated 2018):

Each compound was assayed against GST tagged IRAK4 (Homo sapiens (Human), UniProt Q9NWZ3) (assay: IRAK4 Kinase Assay (IMAP fluorescence polarization)). Settings: 0.5 nM GST tagged IRAK4, 100 μM ATP, 30 minutes at 25° C.
Assay type: biochemical
Protocol: The kinase activity of IRAK4 is determined by its ability to catalyze the phosphorylation of a fluorescent polypeptide substrate. The extent of phosphorylation is measured using the IMAP technology (Molecular Devices) where the phosphorylated fluorescent substrate binds to the large M(III)-based nanoparticles which reduces the rotational speed of the substrate and thus increases its fluorescent polarization (FP).
20 μL reaction mixture contains 10 mM TriHCl, pH 7.2, 0.5 nM GST tagged IRAK4 (SignalChem), 100 nM fluorescent peptide substrate (RP7030, Molecular Devices), 100 μM ATP, 1 mM DDT, 1 mM MgCl2, and 0.01% Tween 20. The reaction is initiated by the addition of ATP. After incubation for 30 minutes at 25° C., 60 μL of Progressive IMAP Reagent (Molecular Devices) is added to stop the reaction. Change in RP7030's FP is determined by a FP reader (Analyst HT, LJL BioSystems).

Chain of GST tagged IRAK4 (Q9NWZ3 whole entry): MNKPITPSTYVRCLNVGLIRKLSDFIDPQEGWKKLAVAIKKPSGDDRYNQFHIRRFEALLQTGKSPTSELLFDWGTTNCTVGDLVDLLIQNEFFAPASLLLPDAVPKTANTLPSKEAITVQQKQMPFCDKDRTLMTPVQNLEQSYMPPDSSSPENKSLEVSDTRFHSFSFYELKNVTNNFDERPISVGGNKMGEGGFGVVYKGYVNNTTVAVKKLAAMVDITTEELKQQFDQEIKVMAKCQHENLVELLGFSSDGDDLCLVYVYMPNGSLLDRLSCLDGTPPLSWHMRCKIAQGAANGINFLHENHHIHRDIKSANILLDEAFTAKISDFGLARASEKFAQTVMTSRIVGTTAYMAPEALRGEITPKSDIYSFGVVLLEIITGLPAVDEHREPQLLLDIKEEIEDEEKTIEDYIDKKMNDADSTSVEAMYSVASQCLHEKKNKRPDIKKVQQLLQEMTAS

Row | SMILES | IC50
1 | N#Cc1ccc2ncnc(N[C@H]3CC[C@H](N)CC3)c2c1 [Example 1-1, 4-[(Trans-4-aminocyclohexyl)amino]quinazoline-6-carbonitrile] | 31 nM
2 | N[C@H]1CC[C@H](Nc2ncnc3ccc(Br)cc23)CC1 [Example 1-2, trans-N-(6-bromoquinazolin-4-yl)cyclohexane-1,4-diamine] | 27 nM
3 | Brc1ccc2ncnc(O[C@H]3CC[C@H](N4CCOCC4)CC3)c2c1 [Example 2-1, 6-Bromo-4-{[trans-4-(morpholin-4-yl)cyclohexyl]oxy}quinazoline] | 40 nM
4 | Brc1ccc2ncnc(N[C@H]3CC[C@H](N4CCOCC4)CC3)c2c1 [Example 2-2, 6-Bromo-N-[trans-4-(morpholin-4-yl)cyclohexyl]quinazolin-4-amine] | 5 nM
5 | COc1cc2ncnc(N[C@H]3CC[C@H](N(C)C)CC3)c2cc1OC [Example 2-3, trans-N′-(6,7-dimethoxyquinazolin-4-yl)-N,N-dimethylcyclohexane-1,4-diamine] | 7420 nM
6 | CN(C)[C@H]1CC[C@H](Nc2ncnc3cc(F)c(F)cc23)CC1 [Example 2-4, trans-N′-(6,7-difluoroquinazolin-4-yl)-N,N-dimethylcyclohexane-1,4-diamine] | 303 nM
7 | CN(C)[C@H]1CC[C@H](Nc2ncnc3ccc(C#N)cc23)CC1 [Example 2-5, 4-{[trans-4-(dimethylamino)cyclohexyl]amino}quinazoline-6-carbonitrile] | 7 nM
8 | CN(C)[C@H]1CC[C@H](Nc2ncnc3ccc(Br)cc23)CC1 [Example 2-6, trans-N′-(6-bromoquinazolin-4-yl)-N,N-dimethylcyclohexane-1,4-diamine] | 9 nM
9 | N#Cc1ccc2ncnc(N[C@H]3CC[C@H](N4CCOCC4)CC3)c2c1 [Example 2-7, 4-{[trans-4-(morpholin-4-yl)cyclohexyl]amino} quinazoline-6-carbonitrile] | 6 nM
10 | COc1ccc2ncnc(N[C@H]3CC[C@H](N4CCOCC4)CC3)c2c1 [Example 2-8, 6-methoxy-N-[trans-4-(morpholin-4-yl)cyclohexyl]quinazolin-4-amine] | 16 nM
11 | Fc1ccc2ncnc(N[C@H]3CC[C@H](N4CCOCC4)CC3)c2c1 [Example 2-9, 6-fluoro-N-[trans-4-(morpholin-4-yl)cyclohexyl]quinazolin-4-amine] | 113 nM
12 | CC(C)Oc1ccc2ncnc(N[C@H]3CC[C@H](N4CCOCC4)CC3)c2c1 [Example 2-10, N-[trans-4-(morpholin-4-yl)cyclohexyl]-6-(propan-2-yloxy)quinazolin-4-amine] | 82 nM
13 | Fc1cc2ncnc(N[C@H]3CC[C@H](N4CCOCC4)CC3)c2cc1Br [Example 2-11, 6-bromo-7-fluoro-N-[trans-4-(morpholin-4-yl)cyclohexyl]quinazolin-4-amine] | 15 nM
14 | COc1cc2c(N[C@H]3CC[C@H](N4CCOCC4)CC3)ncnc2cc1F [Example 2-12, 7-fluoro-6-methoxy-N-[trans-4-(morpholin-4-yl)cyclohexyl]quinazolin-4-amine] | 58 nM
15 | Clc1ccc2ncnc(N[C@H]3CC[C@H](N4CCOCC4)CC3)c2c1 [Example 2-13, 6-chloro-N-[trans-4-(morpholin-4-yl)cyclohexyl]quinazolin-4-amine] | 6 nM
16 | CN(C)[C@H]1CC[C@H](Nc2ncnc3ccc(OCC#N)cc23)CC1 [Example 2-15] | 12 nM
17 | CN(C)[C@H]1CC[C@H](Nc2ncnc3ccc(OCCCC#N)cc23)CC1 [Example 2-16, 4-[(4-{[trans-4-(dimethylamino)cyclohexyl]amino}quinazolin-6-yl)oxy]butanenitrile] | 734 nM
18 | CN(C)[C@H]1CC[C@H](Nc2ncnc3ccc(OCC(N)=O)cc23)CC1 [Example 2-17, 2-[(4-{[trans-4-(dimethylamino)cyclohexyl]amino}quinazolin-6-yl)oxy]acetamide] | 52 nM
19 | N#Cc1ccc2ncnc(NC3CCC(N4CCOCC4)[C@@H]4C[C@H]34)c2c1 (stereo partly drawn) [Example 2-18, 4-{[(1S,6R)-5-(morpholin-4-yl)bicyclo[4.1.0]hept-2-yl]amino}quinazoline-6-carbonitrile] | 56 nM

Results, then the compound that gave them:

Row | IC50 | SMILES
20 | 33 nM | N#Cc1ccc2ncnc(N[C@H]3CC[C@H](N4CCCC(C(F)(F)F)C4)CC3)c2c1 (single isomer, unassigned) [Example 3-2, 4-({cis or trans-4-[(3R or S)-3-(trifluoromethyl)piperidin-1-yl]cyclohexyl}amino) quinazoline-6-carbonitrile]
21 | 7 nM | N#Cc1ccc2ncnc(NC3CCC(N4CCCC(C(F)(F)F)C4)CC3)c2c1 (single isomer, unassigned) [Example 3-3, 4-({cis or trans-4-[(3R or S)-3-(trifluoromethyl)piperidin-1-yl]cyclohexyl}amino) quinazoline-6-carbonitrile]
22 | 503 nM | N#Cc1ccc2ncnc(NC3CCC(N4CCCC(C(F)(F)F)C4)CC3)c2c1 (single isomer, unassigned) [Example 3-4, 4-({cis or trans-4-[(3R or S)-3-(trifluoromethyl)piperidin-1-yl]cyclohexyl}amino) quinazoline-6-carbonitrile]
23 | 908 nM | N#Cc1ccc2ncnc(NC3CCC(N4CCCC(C(F)(F)F)C4)CC3)c2c1 (single isomer, unassigned) [Example 3-5, 4-({cis or trans-4-[(3R or S)-3-(trifluoromethyl)piperidin-1-yl]cyclohexyl}amino) quinazoline-6-carbonitrile]
24 | 7 nM | N#Cc1ccc2ncnc(N[C@H]3CC[C@H](N4CCOC(CO)C4)CC3)c2c1 (single isomer, unassigned) [Example 3-11, 4-({trans-4-[(2R or 2S)-2-(hydroxymethyl)morpholin-4-yl]cyclohexyl}amino) quinazoline-6-carbonitrile]
25 | 6 nM | N#Cc1ccc2ncnc(N[C@H]3CC[C@H](N4CCOC(CO)C4)CC3)c2c1 (single isomer, unassigned) [Example 3-12, 4-({trans-4-[(2R or 2S)-2-(hydroxymethyl)morpholin-4-yl]cyclohexyl}amino) quinazoline-6-carbonitrile]
26 | 33 nM | CC1CN([C@H]2CC[C@H](Nc3ncnc4ccc(C#N)cc34)CC2)CC(C)O1 (single isomer, unassigned) [Example 3-14, 4-({trans-4-[(2S,6S or 2R,6R)-2,6-dimethylmorpholin-4-yl]cyclohexyl}amino) quinazoline-6-carbonitrile]
27 | 58 nM | CC1CN([C@H]2CC[C@H](Nc3ncnc4ccc(C#N)cc34)CC2)CC(C)O1 (single isomer, unassigned) [Example 3-15, 4-({trans-4-[2S,6S or 2R,6R)-2,6-dimethylmorpholin-4-yl]cyclohexyl}amino) quinazoline-6-carbonitrile]
28 | 7 nM | CC1CN([C@H]2CC[C@H](Nc3ncnc4ccc(C#N)cc34)CC2)CCO1 (single isomer, unassigned) [Example 3-16, 4-({trans-4-[(2S or 2R)-2-methylmorpholin-4-yl]cyclohexyl}amino) quinazoline-6-carbonitrile]
29 | 4 nM | CC1CN([C@H]2CC[C@H](Nc3ncnc4ccc(C#N)cc34)CC2)CCO1 (single isomer, unassigned) [Example 3-17, 4-({trans-4-[(2S or 2R)-2-methylmorpholin-4-yl]cyclohexyl}amino) quinazoline-6-carbonitrile]
30 | 70 nM | N#Cc1ccc2ncnc(N[C@H]3CC[C@H](N4CCCC(CN5CCOCC5)C4)CC3)c2c1 (single isomer, unassigned) [Example 3-41, 4-({trans-4-[(3R or 3S)-3-(morpholin-4-ylmethyl)piperidin-1-yl]cyclohexyl}amino) quinazoline-6-carbonitrile]
31 | 5 nM | N#Cc1ccc2ncnc(N[C@H]3CC[C@H](N4CCCC(CN5CCOCC5)C4)CC3)c2c1 (single isomer, unassigned) [Example 3-42, 4-({trans-4-[(3R or 3S)-3-(morpholin-4-ylmethyl)piperidin-1-yl]cyclohexyl}amino) quinazoline-6-carbonitrile]
32 | 256 nM | N#Cc1ccc2ncnc(N[C@H]3CC[C@H](N4CCOC(C(F)(F)F)C4)CC3)c2c1 (single isomer, unassigned) [Example 3-48, 4-({trans-4-[(2R or 2S)-2-(trifluoromethyl)morpholin-4-yl]cyclohexyl}amino) quinazoline-6-carbonitrile]
33 | 131 nM | N#Cc1ccc2ncnc(N[C@H]3CC[C@H](N4CCOC(C(F)(F)F)C4)CC3)c2c1 (single isomer, unassigned) [Example 3-49, 4-({trans-4-[(2R or 2S)-2-(trifluoromethyl)morpholin-4-yl]cyclohexyl}amino) quinazoline-6-carbonitrile]
34 | 14 nM | CC1CC(N2CCOCC2)CCC1Nc1ncnc2ccc(C#N)cc12 (single isomer, unassigned) [Example 8-1, 4-{[(1R,2R,4R or 1S,2S,4S)-2-methyl-4-(morpholin-4-yl)cyclohexyl]amino}quinazoline-6-carbonitrile]
35 | 10 nM | CC1CC(N2CCC(F)CC2)CCC1Nc1ncnc2ccc(C#N)cc12 (single isomer, unassigned) [Example 8-2, 4-{[(1S,2S,4S or 1R,2R,4R)-4-(4-fluoropiperidin-1-yl)-2-methylcyclohexyl]amino} quinazoline-6-carbonitrile]
36 | 26 nM | CC1CC(N2CCOCC2)CCC1Nc1ncnc2ccc(C#N)cc12 (single isomer, unassigned) [Example 8-3, 4-{[(1S,2R,4S or 1R,2S,4R)-2-methyl-4-(morpholin-4-yl)cyclohexyl]amino} quinazoline-6-carbonitrile]
